How the values were obtained:
GST-PLC δ1-PH domain = target: T1, GST-PLC δ1-PH domain (Homo sapiens, UniProt P51178); test: AlphaScreen competitive binding, biotinylated Pea-PI(4,5)P2 as probe lipid
T1 construct: made in house; host or cells: E. coli
T1 sequence (P51178 21-130 limits assumed): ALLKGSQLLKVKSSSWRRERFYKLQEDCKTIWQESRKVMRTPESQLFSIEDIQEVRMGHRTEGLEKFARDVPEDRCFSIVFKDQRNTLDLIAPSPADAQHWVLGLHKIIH
Method: In addition, competitive binding assays were conducted in which the GST-PLC δ1-PH protein was pre-incubated for 30 min with 10 nM to 10 fM of unlabeled diC4 Ptdlns(4,5)P2, Ptdlns(3,4,5)P3, or Pea-PI(4,5)P2 prior to addition of the other reagents, using biotinylated Pea-PI(4,5)P2 as the probe lipid.
These competitive binding experiments were similar to the binding experiment described above except that non biotinylated lipids are added to each reaction to compete with biotinylated Pea-PI(4,5)P2 for binding to PLC-δ 1-PH domain. For example, eight concentrations of PI(3,4,5)P3 diC4, PI(4,5)P2 diC4, and Pea-PI(4,5)P2 were added as competitors to separate wells in addition to 0.2 pmol/well PLC-δ-1-PH domain, 0.4 pmol/well of Pea-PI(4,5)P2, streptavidin donor, and anti-GST acceptor beads; and incubated as previously described. […] This 500 times better affinity of Pea-PI(4,5)P2 for PLC d1-PH domain compared to PI(3,4,5)P3 is fundamental to the development of a robust assay where one detects the specific PIPn product of a kinase or phosphatase in the presence of excess PIPn substrate.

anti-PIP3 antibody = test: Antibody binding to lipids covalently coupled to Maleic-Anhydride activated 96-well plate; details: 50 pmol per well, absorbance at 450 nm
Method: The ability of lipid recognition proteins to specifically recognize and bind to Pea-PIPns was tested by coupling Pea-PIPns (as well as amino PIPs with the same headgroups as controls) to polystyrene microtiter plates. Briefly, 50 pmol per well of amino PI(4,5)P2 (PIP2), amino PI(3,4,5)P3 (PIP3), Pea-PI(4,5)P2 (Pea-PIP2), and Pea-PI(3,4,5)P3 (Pea-PIP3) lipids in 100 μL PBS were coupled via their primary amine functional groups to triplicate wells of a Maleic-Anhydride activated 96-well plate (Pierce, Rockford, Ill.). Underivatized groups were reacted with 200 μL Tris-Glycine-SDS overnight before blocking with 200 μL 0.02% Ovalbumin in TBS. […] Specific binding was subsequently visualized by incubating with anti-mouse-HRP (horseradish peroxidase) secondary antibody (Sigma, St Louis, Mo.), washing as before, then adding tetramethylbenzadine (TMB) developing reagent (Sigma) and reading the absorbance at 450 nm in a plate reader.
Binding specificity of Pea-PIPs was further tested by coupling Pea-PIP2 and Pea-PIP3 (as well as amino PIPs with the same headgroups as controls) to polystyrene microtiter plates. […] Specific binding was subsequently visualized by incubating with anti-mouse-HRP secondary antibody (Sigma, St Louis, Mo.), washing as before, then adding Tetramethylbenzadine (TMB) developing reagent (Sigma) and reading the absorbance at 450 nm in a plate reader.

GST-PLC δ1-PH = target: T2, GST-PLC δ1-PH (Homo sapiens, UniProt P51178); test: Protein-overlay binding to lipids spotted onto nitrocellulose; details: 200 pmol to 6 pmol spotted onto nitrocellulose
T2 construct: made in house; host or cells: E. coli
T2 sequence (P51178 21-130 limits assumed): T1 sequence (P51178 21-130 limits assumed)
Source text: In this Example, immobilized Pea-PIPns are readily and specifically recognized by lipid recognition proteins. According to this Example, six different quantities (from 200 pmol to 6 pmol) of Ptdlns(3,4)P2, Ptdlns(3,5)P2, Ptdlns(4,5)P2, Pea-PI(4,5)P2,Ptdlns(3,4,5)P3; Pea-PI(3,4,5P)3 PI and PE were spotted onto nitrocellulose, and binding of Glutathione S-Transferase (GST)-PLC δ1-PH and GST-General Receptor for Phosphoinositides (Grp1)-PH constructs was examined by a protein-overlay technique (described in Dowler, S., Kular, G., and Alessi, D. R. (2002) Sci STKE 2002, PL6) (recombinant GST tagged PLC δ1-PH and Grp1-PH domain proteins used in this Example were expressed in E. coli then purified using glutathione affinity resin (Amersham Biosciences, Piscataway, N.J.).

[1] = protein pre-incubated 30 min with 10 nM to 10 fM competitor

Row | SMILES | selectivity for displacement of GST-PLC δ1-PH, relative to di-C4 Ptdlns(3,4,5)P3 (GST-PLC δ1-PH domain; [1]) | recognition by anti-PIP3 antibody (anti-PIP3 antibody) | recognition by GST-PLC δ1-PH (GST-PLC δ1-PH) | IC50 (GST-PLC δ1-PH domain; 0.2 pmol/well PLC-δ-1-PH domain, 0.4 pmol/well probe lipid, read-out: IC50 value as competitor) [nM] | binding to the PH domain as unlabeled competitor (GST-PLC δ1-PH domain; [1]) | better affinity for PLC d1-PH domain compared to PI(3,4,5)P3 (GST-PLC δ1-PH domain; ratio of IC50 values) [times]
1 | CCCC(=O)OCC(COP(=O)(O)OC1C(O)C(O)C(OP(=O)(O)O)C(OP(=O)(O)O)C1O)OC(=O)CCC (stereo not drawn) [di-C4 Ptdlns(4,5)P2, reference compound] | Over 100 fold | – | – | – | – | –
2 | CCCCCCCCCCCCCCCC(=O)O[C@H](COP(=O)(O)OCCN)[C@@H](COP(=O)(O)O[C@@H]1[C@H](O)[C@H](O)[C@@H](OP(=O)(O)O)[C@H](OP(=O)(O)O)[C@H]1O)OC(=O)CCCCCCCCCCCCCCC [Pea-PI(4,5)P2, 1-[(2R,3R)-4-(2-Aminoethoxyphosphoryloxy)-2,3-di-O-palmitoylbutoxyphosphoryloxy]-4,5-myo-bisphosphate] | – | (but not Pea-PIP2) was recognized by the specific antibody | able to bind the correct protein at lower concentrations than the corresponding diC16 phosphoinositides | 140 | further increase in binding | 500

— US20050148042A1, “Hybrid phosphoinositide phospholipids: compositions and uses” (priority 2002, published 2005)
